Test results published in PubChem BioAssay (NCI).
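A five-concentration, 48-hour dose response in 96-well plates underlies each endpoint, interpolated linearly between surrounding concentrations. At the TGI there is no net growth.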

What was measured:
Experiment in all cases: NCI tumour cell line growth inhibition, 48 h
[1] = test system: KM12 colon
[2] = test system: MOLT-4 leukemia
[3] = test system: OVCAR-5 ovarian
[4] = test system: RXF 393 renal
[5] = test system: SF-539 CNS
[6] = test system: SNB-19 CNS
[7] = test system: U251 CNS
[8] = test system: UO-31 renal
[9] = test system: ACHN renal
[10] = test system: MDA-MB-435

SMILES	TGI [1]	TGI [2]	TGI [3]	TGI [4]	TGI [5]	TGI [6]	TGI [7]	TGI [8]	TGI [9]	TGI [10]
O=C(O)c1cn2c3c(cc(N4CCN(CCO)CC4)cc3c1=O)SCC2	> 100 µM	> 100 µM	> 100 µM	> 100 µM	> 100 µM	> 100 µM	> 100 µM	> 100 µM		
COC(=O)C1=C(O)C(C(=O)OC)[C@]2(O)[C@H](C(=O)OC)[C@H]1C[C@@H](c1c(Cl)cccc1Cl)[C@H]2C(=O)OC (stereo partly specified)	8.6 µM	5.31 µM		3.92 µM	3.78 µM	5.13 µM	2.99 µM	3.01 µM	4.86 µM	3.3 µM
Cc1cccnc1/N=C/c1c(O)n(C)c(=O)[nH]c1=O	> 100 µM	> 100 µM	> 100 µM		> 100 µM	> 100 µM	> 100 µM	> 100 µM	> 100 µM	> 100 µM
N#C/C(=C\c1cc(Cl)cc(Cl)c1)c1ccccn1	> 100 µM	> 100 µM	> 100 µM	47.2 µM	> 100 µM	> 100 µM	> 100 µM	> 100 µM	> 100 µM	
COC(=O)/C=C/c1ccc2c(c1)CC1(C2)Cc2cc3c(cc2C1=O)CCC3 (stereo unspecified)	> 100 µM	> 100 µM		84.9 µM	> 100 µM	> 100 µM	> 100 µM	> 100 µM	> 100 µM	> 100 µM
O=C(/C=C/c1ccc(O)c(O)c1)c1cc(O)cc(O)c1		> 100 µM	28.9 µM	22.8 µM	20.7 µM	28.5 µM	22.7 µM	22.6 µM	28.9 µM	20.3 µM
Nc1[nH]c(=S)nc2snnc12	> 100 µM	> 100 µM	> 100 µM	> 100 µM	> 100 µM	> 100 µM		> 100 µM	> 100 µM	> 100 µM
COc1ccc2sc(-n3nc4ccccc4c3Nc3nc4ccc(OC)cc4s3)nc2c1	25.5 µM		13.8 µM	43.3 µM	4.5 µM	9.26 µM	11 µM	34 µM	11.2 µM	12 µM
CC1C2CC(C(S(=O)(=O)N3CCOCC3)/C2=N\O)C1(C)C (stereo unspecified)	> 100 µM	> 100 µM		> 100 µM	> 100 µM	> 100 µM		> 100 µM	> 100 µM	> 100 µM
Cc1cc(NC[C@H](O)[C@H](O)[C@H](O)CO)c(Sc2cc(=O)[nH]c(=O)[nH]2)cc1C	> 62.5 µM	> 62.5 µM	> 62.5 µM	> 62.5 µM		> 62.5 µM	> 62.5 µM	> 62.5 µM	> 62.5 µM	> 62.5 µM
Cn1/c(=N\S(=O)(=O)c2ccccc2)n(S(=O)(=O)c2ccccc2)c2ccccc21	> 100 µM	> 100 µM	> 100 µM	> 100 µM		> 100 µM	> 100 µM	> 100 µM	> 100 µM	> 100 µM
CN1CCC(CN2c3ccccc3Sc3ccccc32)CC1	29.6 µM	32.9 µM	33.5 µM	15.1 µM	28.5 µM	29.3 µM	29.2 µM	21.8 µM	29.7 µM	
